Assay results reported in patent publication US6869912B2, “Biocidal composition” (priority 2000, dated 2005).

What was measured:
[1] = Particle size analysis using a Hiac/Royco 8000A Laser Extinction Counter; type: physicochemical; details: particles formed in Example 1
From the text: Particle size analysis, using a Hiac/Royco […] Laser Extinction Counter of a typical batch of the biocidal preparation gave;

[2] = Settling of copper (II) oxalate particles through water in a measuring cylinder; type: physicochemical; details: majority of particles, distributed on the surface of a measuring cylinder
Procedure: A portion of a biocidal composition prepared as described above was distributed on the surface of a measuring cylinder. […] After standing for approximately four hours, samples were taken by pipette from various portions of the water body. The concentration of copper (II) ions in the water body was measured, by way of atomic absorption spectrophotometry, at between 5 and 8 parts per million.

plants and animals = details: cited from earlier work

## O=C([O-])C(=O)[O-].[Cu+2] [copper (II) oxalate]
[1]
  Predominant particle size: below 10 μm
[2]
  Settling rate of particles: 2-5 metres per hour

## [Cu+2] [copper (II) ions]
Plants and animals; over extended periods of time
  Concentration not toxic to almost all plants and animals: up to 2 parts per million
Plants and animals; over relatively short periods of time
  Level tolerated by most plants and animals: 10 parts per million
